Measurements taken from patent EP0316592A2, “3'-Fluoro-2',3'-dideoxyuridine, and its therapeutic application” (Stichting REGA V.Z.W., priority 1987, dated 1989).
Values joined by “and” are separate entries in the source; they are usually repeats but may differ in a detail not shown here. Identical values can stand only once. Like-named read-outs stand apart in the source and are kept apart here.

Key:
Molt/4F dThd kinase = biological target: T1, Molt/4F dThd kinase (Homo sapiens, UniProt P04183); assay: Inhibition of dThd kinase (Lineweaver-Burk); assay type: biochemical; conditions: for Ki: substrate (2-14C)dThd; for inhibitory activity against dThd kinase (in words): at a concentration as high as 750 µM or 1000 µM
T1 construct: endogenous in cells; host or cells: Molt/4F cells (sonicated extract, 30-70% ammonium sulfate fraction, dialyzed)
T1 sequence (P04183 1-234): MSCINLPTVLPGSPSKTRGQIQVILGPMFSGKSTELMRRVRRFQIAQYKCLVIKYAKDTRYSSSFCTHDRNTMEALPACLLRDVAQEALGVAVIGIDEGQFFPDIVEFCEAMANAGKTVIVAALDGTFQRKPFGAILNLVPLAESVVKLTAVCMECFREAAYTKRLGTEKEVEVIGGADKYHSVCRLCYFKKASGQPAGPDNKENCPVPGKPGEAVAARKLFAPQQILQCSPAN
Description: ddUrd and the 3′-fluoro- and 3′-azido-substituted pyrimidine 2′,3′-dideoxynucleoside analogues were evaluated for their inhibitory effect against dThd and dCyd kinase.
dThd kinase and dCyd kinase were prepared from exponen tially growing Molt/4F cells, which were first washed (2x) with phosphate-buffered saline at 4° and then homogenized by sonication. The suspensions were clarified by centrifugation at 25,000-27,000 x g for 30 min. The 30-70% (NH₄)₂SO₄ precipitate of the supernatant was resuspended in buffer containing 10 uM potassium phosphate, pH 7.5, 10 mM β-mercaptoethanol and 0.1 M KCl, dialyzed against the same buffer, and used for the dThd kinase and the dCyd kinase assays. In these experiments, (2-¹⁴C)dThd and (U-¹⁴C)dCyd served as the radiolabelled substrates. The apparent Km and Ki values were derived from Lineweaver-Burk plots, using a linear regression analysis program.

MT4 cells = assay: Cytotoxicity for non-infected MT4 cells (viable cell count)
Description: Then 100 µl of the infected cell suspension was added to 100 µl of an appropriate dilution of test compound in 200 µ1 wells of a Flat Bottom Microtest III Plate (Falcon, Becton Dickinson, Oxnard, CA, USA) (i.e. 40 CCID₅₀ HIV/200 µ1 well/5 x 10⁴ cells), and further incubated at 37°C in a CO₂-controlled humidified atmosphere.

CEM = assay: Cytostatic effect (cell proliferation, Coulter count); assay type: cell-based; conditions: Homo sapiens, CCRF-CEM; cell number reduced by 50%, 68-72 hours; read-out: ID50 CEM
Description: (§1) Raji/0 cells and Raji/TK⁻ (a thymidine (dThd) kinasedeficient mutant cell line derived from wild-type Raji/0 cells, were grown in 75 cm² plastic tissue culture flasks (International Medical, Brussels, Belgium), in Eagle's minimal essential medium, supplemented with 10% (v/v) inactivated foetal calf serum (Gibco, Glasgow, Scotland, U.K.), 2 mM L-glutamine (Flow Laboratories, Irvine, Scotland, U.K.) and 1% THM (5 mM Tes, 7.5 mM Hepes and 5 mM (MOPS) buffer ([…]). The Raji/0 and Raji/TK⁻ cells were characterized according to J. Balzarini et al (Biochem. Pharmacol. 31, 1089-1095 (1982)). Molt/4F, CEM and H9 cells were grown in Eagle's minimal essential medium, supplemented with 10% (v/v) inactivated foetal calf serum and 2 mM L-glutamine. MT4 cells were cultivated in RPMI 1640 medium (Gibco) containing 20 mM Hepes buffer, 10% (v/v) inactivated foetal calf serum (Gibco) and 2 mM L-glutamine (Flow Laboratories).
(§2) All assays were performed in flat bottom Microtest III Plates (96 wells) (Falcon) as previously described by E. De Clercq et al (Mol. Pharmacol. 19, 321-330 (1981)). Briefly, the cells were suspended in growth medium and added to the microplate wells at a density of 7.5 x 10⁴ cells/well (200 µ1) in the presence of varying concentrations of the test compounds. The cells were then allowed to proliferate for 68-72 hours at 37°C in a humidified, CO₂-controlled atmosphere. At the end of the incubation period, the cells were counted with a Coulter Counter (Coulter Electronics Ltd., Harpenden Herts, U.K.). The 50% inhibitory dose (ID₅₀) was defined as the concentration of compound that reduced the number of cells by 50%.

MT4 = assay: as above; assay type: cell-based; conditions: Homo sapiens, cell number reduced by 50%, 68-72 hours, read-out: ID50 MT4
Description: as §1, §2

H9 = assay: as above; assay type: cell-based; conditions: Homo sapiens, cell number reduced by 50%, 68-72 hours, read-out: ID50 H9
Description: as §1, §2

Raji/0 = assay: as above; assay type: cell-based; conditions: Homo sapiens, cell number reduced by 50%, 68-72 hours, read-out: ID50 Raji/0
Description: as §1, §2

Molt/4F = assay: as above; assay type: cell-based; conditions: Homo sapiens, cell number reduced by 50%, 68-72 hours, read-out: ID50 Molt/4F
Description: as §1, §2

Raji/TK- = assay: as above; assay type: cell-based; conditions: Homo sapiens, cell number reduced by 50%, 68-72 hours, read-out: ID50 Raji/TK-
Description: as §1, §2

HIV = assay: Inhibition of HIV-induced cytopathogenicity in MT4 cells; assay type: cell-based; conditions: for EC50: 50% reduction in the cytopathic effect of HIV for MT4 cells, 5 days, read-out: HIV-induced cyto-pathogenicity ED50; for HIV-induced cyto-pathogenicity S.I.: Selectivity index or ratio of CD50 to ED50, MT4 cells
Description: HTLV-IIIB (designated HIV) was derived from a pool of American patients with AIDS, and obtained from the supernatant of HIV-infected H9 cell cultures (see M. Popovic et al, Science 224, 497-500 (1984)).
FddUrd, the unsubstituted analogue and other 3′-fluoro- and 3′-azido-substituted analogues were evaluated for their inhibitory effects on HIV-induced cytopathogenicity in MT4 cells (Table 1, fig. 2).

[1] = tested on: Moloney murine sarcoma virus (MSV); assay: Inhibition of transformation of C3H cells by MSV; assay type: cell-based; conditions: for EC50: Moloney murine sarcoma virus, 144 h, 50% reduction of transformation of C3H cells by MSV, 6 days, read-out: MSV-induced cyto-pathogenicity ED50
Description: Moloney murine sarcoma virus (MSV) was prepared from tumors induced by in vivo infection of 10 day-old NMRI mice according to the procedure described by De Clercq et al (Proc. Soc. Exp. Biol. Med. 137, 590-594 (1971)).
ddUrd and the substituted pymiridine 2′,3′-dideoxynucleoside analogues were examined for their inhibitory effect on the transformation of mouse embryo C3H fibroblasts by Moloney murine sarcoma virus (MSV).
C3H cells were seeded at 20,000 cells per ml into wells of Costar Tissue Culture Cluster plates (48 wells per plate) and grown to confluency. Cell cultures were then infected by 150 foci-forming units of MSV during 90 min, whereafter the culture medium was replaced by 1 ml fresh medium containing different concentrations of the test compound. After 6 days, the transformation of the cell cultures was examined microscopically.

[2] = 50% reduction of viable cells in non-infected MT4 cell cultures, 5 days
[3] = Human immunodeficiency virus 1, MT4, 120 h

Structure (SMILES)	Ki (Molt/4F dThd kinase; dThd kinase)	Type of inhibition (Molt/4F dThd kinase; dThd kinase, with respect to dThd)	Ki/Km (Molt/4F dThd kinase; dThd kinase, Km 2.5 to 6.6 µM)	HIV-induced cyto-pathogenicity CD50 (MT4 cells; [2])	IC50 (CEM)	IC50 (MT4)	IC50 (H9)	IC50 (Raji/0)	IC50 (Molt/4F)	IC50 (Raji/TK-)	fold more effective against HIV replication than the parent compound ddUrd (HIV)	fold more potent/effective against HIV than AzddUrd (HIV)	EC50 (HIV; [3])	HIV-induced cyto-pathogenicity S.I. (HIV)	EC50 [1]	MSV-induced cyto-pathogenicity S.I. ([1]; Selectivity index or ratio of CD50 to ED50, C3H cells)	inhibitory activity against dThd kinase (in words) (Molt/4F dThd kinase)	EC50 (HIV)	Ki/Km (Molt/4F dThd kinase)	HIV-induced cyto-pathogenicity CD50 (MT4 cells)
O=c1ccn([C@H]2C[C@H](F)[C@@H](CO)O2)c(=O)[nH]1 [FddUrd, 3′-fluoro-2′,3′-dideoxyuridine]	833 µM	competitive	171	16 µM	14 µM	> 1000 µM	> 1000 µM	> 1000 µM	≥ 1000 µM	> 1000 µM	5000 fold	9 fold and 10 fold	0.04 µM	400	> 400 µM	–	–	–	–	–
Nc1ccn([C@H]2CC[C@@H](CO)O2)c(=O)n1 [ddCyd, 2′,3′-Dideoxycytidine]	–	–	–	40 µM	6 µM	≥ 1000 µM	243 µM	23 µM	7 µM	28 µM	–	–	0.3 µM	120	25 µM	>16	–	–	–	–
CCc1cn([C@H]2CC[C@@H](CO)O2)c(=O)[nH]c1=O [ddEtUrd, 2′,3′-Dideoxy-5-ethyluridine]	> 750 µM	–	>200	>625 µM	> 1000 µM	326 µM	> 1000 µM	> 1000 µM	> 1000 µM	> 1000 µM	–	–	–	–	> 400 µM	–	no inhibitory activity	> 625 µM	–	–
O=c1ccn([C@H]2CC[C@@H](CO)O2)c(=O)[nH]1 [ddUrd, 2′-3′-dideoxyuridine]	> 1000 µM	–	–	–	> 1000 µM	≥ 1000 µM	> 1000 µM	> 1000 µM	> 1000 µM	> 1000 µM	–	–	> 64 µM	> 3	> 400 µM	–	no inhibitory activity	210 µM	>250	>625 µM
